Key:
[1] = system: cleavage of the amyloid precursor protein (APP); test: OGD in primary cortical neurons, APP cleavage (immunoblot); type: cell-based
Procedure: A. AEP activity, measured in primary neuronal cultures with 5 μM Cbz-Ala-Ala-Asn-AMC (x-axis denotes neurons were treated with 0.1 μM or 1.0 μM specified compound). B. Caspase activity, measured in primary neuronal cultures with 5 μM Ac-Asp-Glu-Val-Asp-AMC. C. Cathepsin activity, measured in primary neuronal cultures with 5 μM D-Val-Leu-Lys-AMC. D. Inhibition of APP cleavage. Lysates of primary cortical neurons pre-incubated with compounds for 30 min, underwent OGD for 4 hrs, were reperfused for 18 hrs (normoxia neurons remained at normoxic conditions). E. APP can be cleaved in a dose-dependent manner. Lysates of primary cortical neurons pre-incubated with compounds for 30 min, underwent OGD for 4 hrs, were reperfused for 18 hrs (normoxia neurons remained at normoxic conditions).
Depriving cells of oxygen and glucose is a cellular model that is employed to trigger acidosis in cultured cells. The efficacy of the compounds in a cellular model of oxygen-glucose deprivation (OGD) was determined in an effort to mimic the effects of stroke in primary cultured neurons. As a result of depriving neurons of oxygen and glucose-containing medium, AEP activity was doubled (FIG. 7A, ‘DMSO-Norm’ compared to ‘DMSO-OGD’), while Caspase-3 and Cathepsin activities remained relatively unchanged. […] Cleavage of APP is observed in response to only DMSO treatment (FIG. 7D, lane 2), and it appears that upon the treatment of 1 μM of compounds 10, 11, and 12, and just 0.1 μM of compounds 31, 38 and 64, the cleavage was blocked, presumably due to AEP inhibition.
Compounds were pre-incubated with primary culture neurons, DIV13, for 30 min. The medium was exchanged for glucose-free DMEM and neurons were de-gased and incubated at 37° C., 95% N2/5% CO2 for 4 hrs with compounds. The medium was exchanged for DMEM and supplemented with compounds, then neurons were reperfused for 18 hrs under normoxic conditions. The neuronal lysates were prepared for AEP, Caspase-3 and Cathepsin assays. Moreover, immunoblotting analysis was conducted with the neuronal lysates using anti-APP, anti-AEP antibodies.

[2] = molecular target: CYP2C9 (Homo sapiens, UniProt P11712); test: CYP inhibition screening, CYP2C9; type: in vitro ADME
[3] = system: Caco-2 monolayer; test: Caco-2 monolayer permeability screen; type: in vitro ADME; settings: for A -> B Papp / B -> A Papp / RE: Caco-2
Procedure: To explore the in vitro ADME profiles of the compounds, additional tests were conducted.

[4] = Liver microsomal stability, human; settings: human liver microsomes; for Mean Remaining Parent (with NADPH): 30 min of incubation
[5] = molecular target: CYP2D6 (Homo sapiens, UniProt P10635); test: CYP inhibition screening, CYP2D6; type: in vitro ADME
[6] = molecular target: T1, AEP (Homo sapiens, UniProt Q99538); test: Enzyme inhibition assays (steady-state kinetics, Z-AAN-AMC); type: biochemical; settings: for mode of inhibition: Michaelis-Menten plots; for inhibition constant KI: competitive inhibition fit
T1 construct: tested with purified active AEP, IC50 values for the top 8 candidates were found; purchased Sino Biological
T1 sequence (Q99538 18-323 limits assumed): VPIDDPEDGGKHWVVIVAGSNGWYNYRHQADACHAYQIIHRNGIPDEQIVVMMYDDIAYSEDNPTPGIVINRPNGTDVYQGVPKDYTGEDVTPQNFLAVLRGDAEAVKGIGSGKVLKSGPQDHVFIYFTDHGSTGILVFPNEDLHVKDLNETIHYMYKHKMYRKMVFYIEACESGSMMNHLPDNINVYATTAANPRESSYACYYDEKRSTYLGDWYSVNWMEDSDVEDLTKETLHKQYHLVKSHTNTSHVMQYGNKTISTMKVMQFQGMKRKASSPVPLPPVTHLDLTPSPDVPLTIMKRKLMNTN
Procedure: KI values for each inhibitor were determined by global fits to the competitive inhibition equation. C. Time course inactivation assays were used to generate progress curves, depicting product formation as a function of time. […] E. Time course inactivation assays were used to generate progress curves, depicting product formation as a function of time. Pseudo first-order rate constants were obtained at each concentration of compound BB1. F. Re-plot of the pseudo first-order rate constants, kobs, vs. the concentration of compound BB1.
To continue to assess the mechanism utilized by the compounds to inhibit AEP, the inhibition kinetics were determined for compound, 11, as well as compound BB1, in an attempt to confirm that the thiol moiety is competitively inhibiting the enzyme. […] The resulting Michaelis-Menten plots for each compound seem be indicative of competitive inhibition. […] Since BB1 contains a thiol group, it can form a disulfide bond with the active-site cysteine of AEP. […] Additionally, plotting the pseudo-first-order rate constants of inhibition, kobs, which were determined from the progress curves, yielded a hyperbolic curve, consistent with a two-step mechanism of inactivation (FIG. 6D). […] However, the kobs versus inhibitor concentration plot yielded a straight line, maybe due to the rapid disulfide formation reaction (FIG. 6F).
To determine the inhibition constants and the mechanism by which compounds BB1, 11 and 38 inhibit AEP, the steady-state kinetic parameters for the hydrolysis of the peptide substrate, Z-AAN-AMC, was determined in the absence or presence of increasing concentrations of inhibitor. In these assays, specified concentrations of the inhibitor were pre-incubated with substrate for 10 min at 37° C., then 50 nM AEP was added to initiate the reaction, which was quenched after 10 min. The RFU values of the reaction product were converted to micromolar values with an AMC standard curve and the final reaction rates were plotted against substrate concentration and globally fit to equations representative of competitive inhibition (eq 1), noncompetitive inhibition (eq 2), mixed inhibition (eq 3) and uncompetitive inhibition (eq 4) using a nonlinear least fit squares approach by GraFit version 5.0.11. […]
ν=Vmax[S]/([S]+Km(1+[1]/Kis)) (eq 1), ν=Vmax[S]/([S](1+[1]/Kl)+Km(1+[1]/Ki)) (eq 2), ν=Vmax[S]/([S](1+[1]/Kii)+Km([…])) (eq 3), ν=Vmax[S]/([S](1+[1]/Kii)+Km) (eq 4).
In the equations, Kii is the intercept Ki, and Kis is the slope Ki. The mode of the inhibition induced by the compounds on AEP was determined by the best fit of the data to equations 1 -4. Visual inspection of the fits, and a comparison of the standard errors, was used to confirm these assignments.

Sequence of CYP2C9 (P11712 whole entry): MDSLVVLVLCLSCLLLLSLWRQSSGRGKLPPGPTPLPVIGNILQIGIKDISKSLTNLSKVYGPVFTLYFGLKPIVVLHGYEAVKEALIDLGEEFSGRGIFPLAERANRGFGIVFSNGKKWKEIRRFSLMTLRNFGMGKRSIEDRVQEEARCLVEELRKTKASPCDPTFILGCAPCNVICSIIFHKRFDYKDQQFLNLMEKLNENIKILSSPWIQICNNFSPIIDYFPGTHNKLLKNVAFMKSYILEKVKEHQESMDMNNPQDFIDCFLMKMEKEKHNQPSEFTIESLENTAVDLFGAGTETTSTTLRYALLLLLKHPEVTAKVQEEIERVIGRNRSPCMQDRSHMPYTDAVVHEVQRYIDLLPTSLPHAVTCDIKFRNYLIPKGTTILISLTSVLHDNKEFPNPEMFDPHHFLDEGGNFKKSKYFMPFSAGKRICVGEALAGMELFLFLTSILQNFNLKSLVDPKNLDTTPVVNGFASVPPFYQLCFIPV
Sequence of CYP2D6 (P10635 whole entry): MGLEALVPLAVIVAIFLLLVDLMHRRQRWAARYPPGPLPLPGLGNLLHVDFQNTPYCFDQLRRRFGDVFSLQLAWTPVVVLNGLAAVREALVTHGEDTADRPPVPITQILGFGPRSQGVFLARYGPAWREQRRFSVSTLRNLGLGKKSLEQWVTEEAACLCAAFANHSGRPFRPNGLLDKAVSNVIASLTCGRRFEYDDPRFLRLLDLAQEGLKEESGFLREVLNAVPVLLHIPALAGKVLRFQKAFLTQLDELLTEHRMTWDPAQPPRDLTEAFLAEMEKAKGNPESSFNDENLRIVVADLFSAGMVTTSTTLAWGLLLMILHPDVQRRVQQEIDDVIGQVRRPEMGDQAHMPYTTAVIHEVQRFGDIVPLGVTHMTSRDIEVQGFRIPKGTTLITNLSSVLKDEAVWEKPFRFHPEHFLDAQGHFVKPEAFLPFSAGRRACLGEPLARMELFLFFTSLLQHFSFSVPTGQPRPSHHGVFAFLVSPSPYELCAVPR

| SMILES | cleavage of APP after OGD ([1]; 1 μM compound) | CYP inhibition, CYP2C9 ([2]; test concentration 3 μM) [%] | CYP inhibition, CYP2C9 ([2]; test concentration 10 μM) [%] | Caco-2 permeability (in words) [3] | A -> B Papp [3] | B -> A Papp [3] | RE [3] | Mean Remaining Parent (NADPH-free) [4] [%] | Mean Remaining Parent (with NADPH) [4] [%] | CYP inhibition, CYP2D6 ([5]; test concentration 3 μM) [%] | CYP inhibition, CYP2D6 ([5]; test concentration 10 μM) [%] | mode of inhibition [6] | inhibition constant KI [6] | cleavage of APP after OGD ([1]; 0.1 μM compound) |
| --- | --- | --- | --- | --- | --- | --- | --- | --- | --- | --- | --- | --- | --- | --- |
| Nc1ccc(N2CCOCC2)c2nonc12 [Compound 11] | blocked | 4.3 | 5.6 | highly permeable | 35.0 10^−6 cm · s^−1 | 7.0 10^−6 cm · s^−1 | 0.2 | 93 | 76 | 7.8 | 21.9 | competitive inhibitors | nanomolar-range | – |
| Cn1c(=O)[nH]c(=O)c2c1nc(S)n2CC(O)COc1ccc(Cl)cc1 (stereo not shown) [Compound 38] | – | 15.6 | 17.1 | – | 1.1 10^−6 cm · s^−1 | 20.3 10^−6 cm · s^−1 | 18.2 | 107 | 88 | −5.4 | 0.9 | – | – | blocked |
| Sc1nnc(Nc2ccccc2)s1 [Compound BB1] | – | – | – | – | – | – | – | – | – | – | – | competitive inhibitors | nanomolar-range | – |

— US20170029388A1, “Treatment of Neurodegenerative Diseases with Asparagine Endopeptidase (AEP) Inhibitors and Compositions Related Thereto” (INTERCONTINENTAL GREAT BRANDS LLC, priority 2014, published 2017)
